# US20260007634A1, “PHARMACEUTICAL COMPOSITIONS FOR THE TREATMENT OF ALLERGIC DISEASES” (KINKI UNIVERSITY, priority 2022, published 2026)
# Tests used:
# Type in all cases: in vivo, mouse
# IgE antibody [1] = test: Serum IgE antibody ELISA, allergic rhinitis mice; conditions: OVA allergic rhinitis; serum day 28; oral 10 mg/kg (dexamethasone 2 mg/kg); control 58, vehicle 111
# Protocol: (§1) A 0.2 mL dose of 50 μg ovalbumin (OVA) and 2 mg Alum mixture was administered to 6-week-old female Balb/c mice (Japan SLC Inc.) (day 0 of the example). Alum was used as an adjuvant. Seven days later and 14 days later, the Balb/c mice were immunized again with 0.2 mL injections of the above mixture. Starting on day 20, mice were orally treated with 10 mg/kg of norathyriol, 10 mg/kg of mangiferin 8a, 10 mg/kg of tofacitinib (JAK inhibitor), 2 mg/kg of dexamethasone (steroid) and 10 mg/kg of olopatadine (antihistamine) daily for 8 consecutive days. Starting on day 21, 400 μg OVA was administered intranasally, and nose-scratching behavior was measured on day 27. Note that tofacitinib, dexamethasone, and olopatadine are currently in clinical use in allergic rhinitis and were used as control drugs in this example.
# Serum was collected from day 28 mice in Examples 6 and 7, and IgE antibody production was measured by enzyme-linked immunosorbent assay (ELISA). This assay was performed using a mouse IgE antibody ELISA kit (R&D).
# BAFF = test: Serum BAFF ELISA, allergic rhinitis mice; conditions: OVA allergic rhinitis; serum day 28; oral 10 mg/kg (dexamethasone 2 mg/kg); control 157, vehicle 1450
# Protocol: as §1
# Serum was collected from day 28 mice in Examples 6 and 7, and BAFF production was measured by enzyme-linked immunosorbent assay (ELISA). This assay was performed using a mouse BAFF ELISA kit (R&D).
# IL-5 [2] = test: Serum IL-5 ELISA, allergic rhinitis mice; conditions: OVA allergic rhinitis; serum day 28; oral 10 mg/kg (dexamethasone 2 mg/kg); control 151, vehicle 1010
# Protocol: as §1
# Serum was collected from day 28 mice in Examples 6 and 7, and IL-5 production was measured by enzyme-linked immunosorbent assay (ELISA). This assay was performed using a mouse IL-5 ELISA kit (R&D).
# IL-17 = test: Serum IL-17 ELISA, allergic rhinitis mice; conditions: OVA allergic rhinitis; serum day 28; oral 10 mg/kg (dexamethasone 2 mg/kg); control 204, vehicle 945
# Protocol: as §1
# Serum was collected from day 28 mice in Examples 6 and 7, and IL-17 production was measured by enzyme-linked immunosorbent assay (ELISA). This assay was performed using a mouse IL-17 ELISA kit (R&D).
# IgE antibody [3] = test: Serum IgE antibody ELISA, bronchial asthma mice; conditions: OVA bronchial asthma; serum day 28; oral 10 mg/kg (dexamethasone 2 mg/kg); control 73, vehicle 117
# Protocol: as §1, with “cough” for “nose-scratching behavior”
# Serum was collected from day 28 mice in Examples 14, and IgE antibody production was measured by enzyme-linked immunosorbent assay (ELISA). This assay was performed using a mouse IgE antibody ELISA kit (R&D).
# IL-4 = test: Serum IL-4 ELISA, bronchial asthma mice; conditions: OVA bronchial asthma; serum day 28; oral 10 mg/kg (dexamethasone 2 mg/kg); control 282, vehicle 863
# Protocol: as §1, with “cough” for “nose-scratching behavior”
# Serum was collected from day 28 mice in Examples 14, and IL-4 production was measured by enzyme-linked immunosorbent assay (ELISA). This assay was performed using a mouse IL-4 ELISA kit (R&D).
# IgE antibody [4] = test: Serum IgE antibody ELISA, food allergy mice; conditions: OVA food allergy; serum day 28; oral 10 mg/kg (dexamethasone 2 mg/kg); control 56, vehicle 124
# Protocol: A 0.2 mL dose of 10 μg ovalbumin (OVA) and 1 mg Alum mixture was administered to 6-week-old female Balb/c mice (Japan SLC Inc.) (day 0 of the example). Alum was used as an adjuvant. Seven days later, the Balb/c mice were immunized again with a 0.2 mL injection of the above mixture. Starting on day 14, mice were orally treated with 10 mg/kg of norathyriol, 10 mg/kg of mangiferin 8a, 10 mg/kg of tofacitinib (JAK inhibitor), 2 mg/kg of dexamethasone (steroid) and 10 mg/kg of olopatadine (antihistamine) daily for 14 consecutive days. […]
# Serum was collected from day 28 mice in Examples 21, and IgE antibody production was measured by enzyme-linked immunosorbent assay (ELISA). This assay was performed using a mouse IgE antibody ELISA kit (R&D).
# IL-5 [5] = test: Serum IL-5 ELISA, cedar pollinosis mice; conditions: serum day 28, oral 10 mg/kg (dexamethasone 2 mg/kg), control 77, vehicle 708
# Protocol: as §1, with “of 100” for “of 50”, “μg cedar pollen” for “μg ovalbumin (OVA)”, “and 1” for “and 2”, “21, 500” for “21, 400”, “μg cedar pollen” for “μg OVA”, “in cedar pollinosis” for “in allergic rhinitis”
# Serum was collected from day 28 mice in Examples 28 and 29, and IL-5 production was measured by enzyme-linked immunosorbent assay (ELISA). This assay was performed using a mouse IL-5 ELISA kit (R&D).
SMILES,amount of IgE antibody (IgE antibody [1]) [ng/mL],amount of BAFF (BAFF) [pg/mL],amount of IL-5 (IL-5 [2]) [pg/mL],amount of IL-17 (IL-17) [pg/mL],amount of IgE antibody (IgE antibody [3]) [ng/mL],amount of IL-4 (IL-4) [pg/mL],amount of IgE antibody (IgE antibody [4]) [ng/mL],amount of IL-5 (IL-5 [5]) [pg/mL]
C[C@@H]1C[C@H]2[C@@H]3CCC4=CC(=O)C=C[C@]4(C)[C@@]3(F)[C@@H](O)C[C@]2(C)[C@@]1(O)C(=O)CO [dexamethasone],40,266,314,227,34,359,36,182
"O=c1c2cc(O)c(O)cc2oc2cc(O)cc(O)c12 [norathyriol, 1,3,6,7-tetrahydroxyxanthone]",77,629,633,583,88,545,84,307
CN(C)CC/C=C1/c2ccccc2COc2ccc(CC(=O)O)cc21 [olopatadine],118,1691,880,839,126,781,111,438
C[C@@H]1CCN(C(=O)CC#N)C[C@@H]1N(C)c1ncnc2[nH]ccc12 [tofacitinib],94,1041,839,892,101,831,106,428
